In patent US20090105292A9, “Glucocorticoid Receptor Modulator Compounds and Methods” (LIGAND PHARMACEUTICALS INCORPORATED, priority 2004, published 2009):

Biological target: T1, human glucocorticoid receptor protein (GR) (Homo sapiens, UniProt P04150)
T1 construct: made in house; host or cells: Spodoptera frugiperda Sf21 insect cells (baculovirus)
T1 sequence (P04150 1-777): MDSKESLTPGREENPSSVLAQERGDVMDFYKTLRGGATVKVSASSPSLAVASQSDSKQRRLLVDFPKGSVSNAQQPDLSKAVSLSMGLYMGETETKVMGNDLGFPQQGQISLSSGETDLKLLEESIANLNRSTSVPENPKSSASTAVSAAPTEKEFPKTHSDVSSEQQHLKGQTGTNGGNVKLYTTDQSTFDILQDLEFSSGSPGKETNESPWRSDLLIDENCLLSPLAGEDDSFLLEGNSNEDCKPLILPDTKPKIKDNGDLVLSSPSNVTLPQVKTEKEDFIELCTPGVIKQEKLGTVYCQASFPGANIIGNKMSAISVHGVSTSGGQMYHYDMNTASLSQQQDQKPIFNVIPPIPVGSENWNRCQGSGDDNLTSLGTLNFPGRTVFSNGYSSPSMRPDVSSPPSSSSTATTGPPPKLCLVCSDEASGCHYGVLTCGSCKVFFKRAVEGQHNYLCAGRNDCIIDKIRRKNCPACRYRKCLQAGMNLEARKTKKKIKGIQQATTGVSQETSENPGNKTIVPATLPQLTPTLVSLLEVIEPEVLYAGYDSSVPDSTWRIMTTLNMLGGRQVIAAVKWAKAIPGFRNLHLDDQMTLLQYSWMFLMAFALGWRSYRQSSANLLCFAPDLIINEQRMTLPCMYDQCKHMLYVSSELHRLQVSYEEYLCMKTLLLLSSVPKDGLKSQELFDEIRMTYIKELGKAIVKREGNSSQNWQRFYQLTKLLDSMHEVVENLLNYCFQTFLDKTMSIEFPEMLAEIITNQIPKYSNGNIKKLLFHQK
Assay: Glucocorticoid receptor binding assay ([3H]dexamethasone competition, GR lysate)
Conditions: not given
Description: A baculovirus expression plasmid containing cDNA encoding the human glucocorticoid receptor protein (GR) was prepared using standard techniques. […] That expression plasmid was co-transfected together with wild type Autographa californica multiple nuclear polyhedrosis virus DNA into Spodopter frugiperda-21 (Sf-21) cells to generate recombinant virus containing GR cDNA. See e.g., O'Reilly, D. R., Miller, L. K., Luckow, V. A., Regulation of expression of a baculovirus ecdysteroid UDP glucosyltransferase gene. […] That recombinant virus containing GR cDNA was collected.
A suspension culture of uninfected Sf21 cells was grown to a density of 1.2×10^6 cells/ml and then infected with the recombinant virus containing GR cDNA at a multiplicity of infection of 2. Those infected Sf21 cells were incubated for 48 hours and then collected by centrifugation at 1000×g for 10 minutes at 4° C. The resulting cell pellets were resuspended in lysis buffer (50 mM Potassium Phosphate buffer, pH 7.0, 10 mM Monothioglycerol, 5 mM DTT, 20 mM Sodium Molybdate, 1 mM PMSF, 1 μg/mL aprotinin, and 10 μg/mL leupeptin) and incubated for 15 minutes on ice. Those resuspended cell pellets were homogenized using a Dounce homogenizer and a B pestle. A volume of 2 M KCl was added to the homogenized cell pellets to a final concentration of 0.4 M. The resulting GR lysates were centrifuged at 100,000×g for 60 min at 4° C. and stored for use in binding assays.
Binding assay samples were prepared in separate mini-tubes in a 96-well format at 4° C. Each binding assay sample was prepared in a volume of 250 μL of Assay Buffer (10% glycerol, 25 mM sodium phosphate, 10 mM potassium fluoride, 10 mM sodium molybdate, 0.25 mM CHAPS, 2 mM DTT and 1 mM EDTA, (adjusted to pH 7.5)) containing 50 μg of GR lysate; 2-4 nM of [^3H]dexamethasone at 84 Ci/mmol; and either a reference compound or a test compound. […] Each reference compound and test compound was assayed at varying concentrations, ranging from 0 to 10^−5 M. Each concentration of each reference compound and each test compound was assayed in triplicate. The assay samples were incubated for 16 hours at 4° C.
The assay samples were then centrifuged and the supernatants were discarded. The resulting pellets were washed twice with assay buffer lacking DTT. Radioactivity in counts per minute (CPM) of each washed pellet was determined by liquid scintillation counter (MicroBeta™, Wallach).
Specific binding for a particular sample was calculated using the equation: (Sample CPM)−(Average Non-specific CPM)
Average Non-specific CPM was defined as the amount of radioactivity from samples containing an excess (i.e. 1000 nM) of unlabeled dexamethasone. […] Ki values were determined using the Cheng-Prusoff equation using a previously determined Kd value for dexamethasone: Ki=IC50/(1+[L]/Kd)
[L]=concentration of labeled dexamethasone
Kd=dissociation constant of labeled dexamethasone

Row | Ki [nM] | Structure (SMILES)
1 | 1 to 2 | COc1c(O)ccc2c1-c1ccc3c(c1/C(=C/c1cccc(C(F)(F)F)c1)O2)C(C)=CC(C)(C)N3 [Compound 11, (Z)-5-(3′-trifluoromethylbenzylidene)-1,2-dihydro-9-hydroxy-10-methoxy-2,2,4-trimethyl-5H-chromeno[3,4-f]quinoline]
2 | > 3 | COc1c(O)ccc2c1-c1ccc3c(c1/C(=C/c1cccc(OC(F)(F)F)c1)O2)C(C)=CC(C)(C)N3 [Compound 22, (Z)-5-(3′-trifluoromethoxybenzylidene)-1,2-dihydro-9-hydroxy-10-methoxy-2,2,4-trimethyl-5H-chromeno[3,4-f]quinoline]

Same assay, conditions: competition with 2-4 nM [3H]dexamethasone, 16 hours at 4° C., Cheng-Prusoff; read-out: Ki

Row | Ki [nM] | Structure (SMILES)
3 | 2 to 3 | COc1c(O)ccc2c1-c1ccc3c(c1/C(=C/c1cc(Cl)ccc1Cl)O2)C(C)=CC(C)(C)N3 [Compound 14, (Z)-5-(2′,5′-dichlorobenzylidene)-1,2-dihydro-9-hydroxy-10-methoxy-2,2,4-trimethyl-5H-chromeno[3,4-f]quinoline]
4 | 2 to 3 | COc1c(O)ccc2c1-c1ccc3c(c1/C(=C/c1cccc(C(F)(F)F)c1F)O2)C(C)=CC(C)(C)N3 [Compound 29, (Z)-5-(2′-fluoro-3′-trifluoromethylbenzylidene)-1,2-dihydro-9-hydroxy-10-methoxy-2,2,4-trimethyl-5H-chromeno[3,4-f]quinoline]
5 | 1 to 2 | C=CCO/N=C(/C)c1ccsc1/C=C1\Oc2ccc(O)c(OC)c2-c2ccc3c(c21)C(C)=CC(C)(C)N3 [Compound 179, (Z)-5-(2′-(3′-((Z)-1″-Allyloxyiminoethyl)thienylmethylidene))1,2-dihydro-9-hydroxy-10-methoxy-2,2,4-trimethyl-5H-chromeno[3,4-f]quinoline]
6 | 1 to 2 | C=Cc1ccc(/C=C2\Oc3ccc(O)c(OC)c3-c3ccc4c(c32)C(C)=CC(C)(C)N4)cc1 [Compound 63, (Z)-5-(4′-vinylbenzylidene)-1,2-dihydro-9-hydroxy-10-methoxy-2,2,4-trimethyl-5H-chromeno[3,4-f]quinoline]
7 | 2 to 3 | COc1c(O)ccc2c1-c1ccc3c(c1/C(=C/c1sccc1CNC1CC1)O2)C(C)=CC(C)(C)N3 [Compound 222, (Z)-5-(2′-(3′-(Cyclopropylaminomethyl)thienylmethylidene))1,2-dihydro-9-hydroxy-10-methoxy-2,2,4-trimethyl-5H-chromeno[3,4-f]quinoline]
8 | 1 to 2 | COc1c(O)ccc2c1-c1ccc3c(c1/C(=C/c1sccc1C(=O)c1ccsc1)O2)C(C)=CC(C)(C)N3 [Compound 215, (Z)-5-(2′-(3′-(Thien-3″-ylcarbonyl)thienylmethylidene))1,2-dihydro-9-hydroxy-10-methoxy-2,2,4-trimethyl-5H-chromeno[3,4-f]quinoline]
9 | > 3 | COc1c(O)ccc2c1-c1ccc3c(c1/C(=C/c1cccc4ccccc14)O2)C(C)=CC(C)(C)N3 [Compound 111, (Z)-5-(1′-naphthylmethylidene)-1,2-dihydro-9-hydroxy-10-methoxy-2,2,4-trimethyl-5H-chromeno[3,4-f]quinoline]
10 | < 1 | COc1c(O)ccc2c1-c1ccc3c(c1/C(=C/c1ccccc1C#N)O2)C(C)=CC(C)(C)N3 [Compound 107, (Z)-5-(2′-cyanobenzylidene)-1,2-dihydro-9-hydroxy-10-methoxy-2,2,4-trimethyl-5H-chromeno[3,4-f]quinoline]
11 | 1 to 2 | COc1c(O)ccc2c1-c1ccc3c(c1/C(=C/c1ccc(F)cc1S(=O)(=O)N(C)C)O2)C(C)=CC(C)(C)N3 [Compound 103, (Z)-5-(2′-dimethylaminosulphonyl-4′-fluorobenzylidene)-1,2-dihydro-9-hydroxy-10-methoxy-2,2,4-trimethyl-5H-chromeno[3,4-f]quinoline]
12 | > 3 | COc1c(O)ccc2c1-c1ccc3c(c1/C(=C/c1cccc(C)c1C(=O)N1CCCC1)O2)C(C)=CC(C)(C)N3 [Compound 154, (Z)-5-(3′-Methyl-2′-(pyrrolidinecarbonyl)benzylidene)1,2-dihydro-9-hydroxy-10-methoxy-2,2,4-trimethyl-5H-chromeno[3,4-f]quinoline]
13 | < 1 | COc1cccc(/C=C2\Oc3ccc(O)c(OC)c3-c3ccc4c(c32)C(C)=CC(C)(C)N4)c1 [Compound 15, (Z)-5-(3′-methoxybenzylidene)-1,2-dihydro-9-hydroxy-10-methoxy-2,2,4-trimethyl-5H-chromeno[3,4-f]quinoline]
14 | < 1 | COc1c(O)ccc2c1-c1ccc3c(c1/C(=C/c1cc(F)ccc1C)O2)C(C)=CC(C)(C)N3 [Compound 37, (Z)-5-(5′-fluoro-2′-methylbenzylidene)-1,2-dihydro-9-hydroxy-10-methoxy-2,2,4-trimethyl-5H-chromeno[3,4-f]quinoline]
15 | 1 to 2 | COc1c(O)ccc2c1-c1ccc3c(c1/C(=C/c1ccccc1CO)O2)C(C)=CC(C)(C)N3 [Compound 159, (Z)-5-(2′-Hydroxymethylbenzylidene)1,2-dihydro-9-hydroxy-10-methoxy-2,2,4-trimethyl-5H-chromeno[3,4-f]quinoline]
16 | 1 to 2 | COc1c(O)ccc2c1-c1ccc3c(c1/C(=C/c1cccc(OCCF)c1)O2)C(C)=CC(C)(C)N3 [Compound 86, (Z)-5-(3′-(2″-fluoroethoxy)benzylidene)-1,2-dihydro-9-hydroxy-10-methoxy-2,2,4-trimethyl-5H-chromeno[3,4-f]quinoline]
17 | < 1 | COc1c(O)ccc2c1-c1ccc3c(c1/C(=C/c1sccc1CO)O2)C(C)=CC(C)(C)N3 [Compound 157, (Z)-5-(2′-(3′-Hydroxymethylthienylmethylidene))1,2-dihydro-9-hydroxy-10-methoxy-2,2,4-trimethyl-5H-chromeno[3,4-f]quinoline]

Test system: not given
Assay: not given
Conditions: not given

Row | melting point [°C] | Structure (SMILES)
18 | 222 to 224 | COc1c(O)ccc2c1-c1ccc3c(c1/C(=C/c1sccc1C(C)=O)O2)C(C)=CC(C)(C)N3
